Where a name gives a salt, the structure may show the parent alone. Read-outs that look alike come from different tables or passages of the source. One block for each compound: values may come before it.
Experiments:
[1] = cited from earlier work
[2] = apparent dissociation constant of putative Ca*ligand complex from potentiometric Ca^2+ activity; format: physicochemical; details: 20 mM Hepes, pH 7.0 to 7.6, dilutions with 0.15 mM of NaCl, average of n determinations; for Kd: read-out: kd ± S.D.
Method: Bovine plasma deficient in vitamin K dependent coagulation factors and thromboplastin from rabbit brain were the corresponding components from PK-reagent GHI 129 detailed above. Ca^2+ activity and pH in plasma were determined potentiometrically with an ICA 2 (Radiometer, Copenhagen, Denmark) apparatus.
In order to identify compounds that could function as buffers for Ca^2+ at physiological levels, i.e. at about 1.3 mM of Ca^2+, water soluble compounds, either with reported dissociation constants in the range of 0.5 to 5 mM or otherwise appearing interesting, were experimentally investigated. Below, these compounds are referred to as Ca^2+ ligands or simply ligands. Experiments described below were performed to deduce the apparent dissociation constants under physiological like conditions and at ligand concentrations meaningful for Ca^2+ buffering.
Solution of 200 mM of ligand containing 20 mM of Hepes was adjusted to pH 7.4 and mixed with an equal volume of 100 mM of CaCl2 solution. These mixtures were diluted 1:2, 1:4, 1:8 and 1:16 with […]. […] From the experimentally determined Ca^2+ activity and the stoikiometric levels of ligand and Ca^2+, the apparent dissociation constant for a putative Ca*ligand complex was determined as the average of all available data.

[3] = test system: prothrombin complex (coagulation factors VII, X and II); test: coagulation time in prothrombin complex (PK) system with added citrate or iso-citrate; format: biochemical
Method: Activated partial thromboplastin time (APTT), prothrombin time (PT), prothrombin complex, (PK), assay, factor VIII and fibrin D-dimer were determined in compliance with manufacturers recommendations using the following reagents; PTT Automate, Diagnostica Stago, Asnieres-sur-Seine, France; Thromborel® S, Behring Diagnostics GmbH, Marburg, Germany; PK-reagent GHI 129, Global Hemostasis Institute MGR, Linköping, Sweden; and Coamatic® Factor VIII, Chromogenix, Mölndal, Sweden. The tests were performed on an Automated Coagulation Laboratory instrument, ACL, model 810 (Instrumentation Laboratory, Milan, Italy).
Coagulation analysis of blood and blood plasma are performed in many different ways. Most such analysis have the following in common. […] This Ca^2+ buffer capacity was determined in a system composed of sample, bovine plasma deficient in vitamin K dependent coagulation factors and rabbit brain thromboplastin. […] For each level of addition, the calcium ion buffering capacity of the analytical system was determined. The buffer capacity was determined at Ca^2+ activity in the range of 1 to 4 mM.
The assay response of the system described in Example 5 is investigated. […] The coagulation time is recorded. And after compacting of the coagulum by centrifugation for 3 minutes at 10,000×g, the Ca2+ activity is determined. […]

[4] = addition of CaCl2 solution to anti-coagulant solutions to reach physiological Ca^2+; format: physicochemical; details: solutions of the Ca^2+ binding substance plus CaCl2
From the text: This gave rise to the idea that these substances could perform as anticoagulants also at near physiological levels of Ca^2+ activity. […] This was possible with iso-citrate but not with citrate. […] The following therefore only describes experiments with iso-citrate.

[5] = in 0.1 M KNO3, read-out: published estimate
[6] = prior art, at physiological conditions
[7] = in 0.1 M NaClO4, read-out: published estimate

Compound: Nc1nc(N)c2[nH]cnc2n1 [2,6-diaminopurine]
- Kd [1, 5]: 1.6 mM
- Kd [2]: 50 ± 24 mM

Compound: O=C(O)CN(CCN(CC(=O)O)CC(=O)O)CC(=O)O [EDTA]
- apparent dissociation constant of Ca^2+ complexes [1, 6]: considerably tighter

Compound: CC(C)(C(=O)O)C(=O)O [dimethylmalonate, dimethylmalonic acid]
- Kd [1, 7]: 30.2 mM

Compound: CC(C(=O)O)C(=O)O [methylmalonate, methylmalonic acid]
- Kd [1, 7]: 22.4 mM
- Kd [2]: 22 ± 3 mM

Compound: O=C(O)/C=C(\CC(=O)O)C(=O)O [trans-aconitate, trans-aconitic acid]
- Kd [2]: 29 ± 53 mM

Now from value to compound, other results behind:

- Kd [2]: 70 ± 40 mM
Compound: Nc1ncnc2nc[nH]c12 [adenine]
- Kd [1, 5]: 1.1 mM

- Kd [2]: 0.5 ± 0.05 mM
- making solutions with physiological levels of Ca^2+ by adding CaCl2 solution [4]: formed precipitates
Compound: O=C(O)CC(O)(CC(=O)O)C(=O)O [citrate, Tri-sodium citrate]
- Kd ([1]; medium not given, read-out: published estimate): 0.58 mM
- Kd ([1]; prior art, at physiological conditions, read-out: apparent dissociation constant of Ca^2+ complexes): ~0.4 mM
- inhibition of coagulation (coagulation time) in PK system ([3]; 5, 10 or 20 mM added, Ca^2+ activity 0.7 to 9 mM): inhibit coagulation at all Ca^2+ activity levels
- inhibitory effect on coagulation time per molar unit, citrate versus iso-citrate ([3]; Ca^2+ activity of 1.5, FIG. 8): about twice as inhibitory as iso-citrate per molar unit

- Kd [2]: 29 ± 12 mM
Compound: O=C(O)CNCC(=O)O [iminodiacetate]
- Kd ([1]; in 1 M KNO3, read-out: published estimate): 8.1 mM

- kd ± S.D. [2]: oxalate (precipitated)
Compound: O=C(O)C(=O)O [oxalate, oxalic acid]
- Kd [1, 5]: 5 mM
- apparent dissociation constant of Ca^2+ complexes [1, 6]: considerably tighter

- Kd [2]: 26 ± 73 mM
Compound: O=C(O)c1ccccc1C(=O)O [phthalate, phthalic acid]
- Kd ([1]; in 0.1 M KCl, read-out: published estimate): 3.9 mM

- Kd [2]: 22 ± 53 mM
Compound: O=C(O)CC(CC(=O)O)C(=O)O [tricarballylate, tricarballylic acid]
